Assay results as given in patent US10383931B2, “Peptides and combination of peptides for use in immunotherapy against cancers” (IMMATICS BIOTECHNOLOGIES GMBH, priority 2016, dated 2019).

Target: HLA-A*02:01 (Homo sapiens, UniProt P04439, D140Y/D185E/D98H/E176V/E277Q/G131W/G231S/I119V/I121R/I166T/I218V/L300P/L318F/N151K/N90K/P208A/P217A/Q86G/Q94H/R138H/R169H/T345S)
Test: ELISA-based assay of affinity (KD) to HLA-A*02:01
Assay type: binding
Conditions: FIG. 5

binding to HLA-A*02:01 (dissociation constant KD, in words)	Substance
very good binding	KIQEILTQV [IGF2BP3-001, HLA-A*02-presented tumor-associated peptide]
strong binder	MET-001: control peptide, strong binder to HLA-A*02:01 (YVDPVITSI)
